Laboratory results from patent US9879024B2, “Crystal forms of (R)-N-methylnaltrexone bromide and uses thereof” (Progenics Pharmaceuticals, Inc., priority 2007, dated 2018).

Legend:
Type in all cases: physicochemical
[1] = Solubility of Form A at 37° C. under conditions that simulate the human GI tract (HPLC of filtrate); details: thermodynamic from solid, 37° C. overnight
Protocol: […] All solutions were stored overnight in a 37° C. oven, and then filtered through a Whatman 0.45 μm nylon syringe filter to remove insoluble material.

[2] = Equilibrium solubility of Form A at room temperature in solvents and aqueous buffers; details: thermodynamic from solid, read-out: Solubility at R.T.
Protocol: In each case, the equilibrium solubility of Form A at room temperature was measured by placing the compound in excess into different solvents and stirring overnight at ambient room temperature, protected from light. Solubility in the following solvents and aqueous buffers was evaluated at room temperature: methanol, ethanol, benzyl alcohol, dimethyl sulfoxide, water for injection, bacteriostatic water (containing 0.9% benzyl alcohol), 5% dextrose, normal saline (0.9% NaCl), pH 1.1 (glycine HCl), pH 4.2 (glycine HCl), pH 7.1 (phosphate buffer), and pH 9.1 (glycine). Solubilities are reported to the nearest mg/mL unless otherwise stated.

[3] = Water solubility of amorphous Compound 1; details: qualitative statement, no data given

C[N+]1(CC2CC2)CC[C@]23c4c5ccc(O)c4O[C@H]2C(=O)CC[C@@]3(O)[C@H]1C5.[Br-] (stereo partly drawn) [Form A, (R)-N-methylnaltrexone bromide]
solubility ([1]; aqueous buffer, pH 4.5 (acetate buffer)): 100 mg/mL | solubility ([1]; aqueous buffer, pH 6.8 (phosphate buffer)): 101 mg/mL | solubility ([1]; aqueous buffer, pH 9.0 (borate buffer)): 101 mg/mL | solubility ([1]; pH 1, simulated gastric fluid, 0.1N HCl): 101 mg/mL | solubility ([2]; aqueous buffer, pH 4.2 (glycine HCl buffer)): 73.8 mg/mL | solubility ([2]; aqueous buffer, pH 7.1 (phosphate buffer)): 74.9 mg/mL | solubility ([2]; aqueous buffer, pH 9.1 (glycine buffer)): 71.1 mg/mL | solubility ([2]; dimethyl sulfoxide, organic solvent or mixture, Dimethylsulfoxide, stirred overnight): > 170 mg/mL | solubility ([2]; organic solvent or mixture, Benzyl alcohol, stirred overnight): 85.5 mg/mL | solubility ([2]; organic solvent or mixture, Ethanol, stirred overnight): 6.1 mg/mL | solubility ([2]; organic solvent or mixture, Methanol, stirred overnight): 2.5 mg/mL | solubility ([2]; saline or isotonic, 5% Dextrose, stirred overnight): 61.3 mg/mL | solubility ([2]; saline or isotonic, Normal saline (0.9% NaCl), stirred overnight): 59.7 mg/mL | solubility ([2]; simulated gastric fluid, 0.1N HCl): 76.6 mg/mL | solubility ([2]; simulated gastric fluid, pH 1.1 (glycine HCl buffer)): 70.1 mg/mL | solubility ([2]; Bacteriostatic water (0.9% benzyl alcohol), stirred overnight): 86.5 mg/mL | solubility ([2]; Water for injection, stirred overnight): 73.5 mg/mL

C[N+]1(CC2CC2)CC[C@]23c4c5ccc(O)c4O[C@H]2C(=O)CC[C@@]3(O)[C@H]1C5.[Br-] (stereo partly drawn) [amorphous Compound 1, (R)-N-methylnaltrexone bromide]
water solubility [3]: enhanced water solubility
